For test [1], the system named is human breast cancer cell line MDB-MA-231. Kind of test: Proliferation inhibition assay on human breast cancer cell line MDA-MB-231 (DAPI staining, In Cell Analyzer). It is filed as cell-based. As to the method:
Experimental Preparation:
1. MDA-MB-231 cells were seeded at 4000 cells/100 ul/well to a 96-well plate with black transparent bottom, and cultured overnight at 37° C.;
3. Fixation: the cell plate was taken, medium was removed, and 50 μl of 4% paraformaldehyde was added to each well and fixed 10 min;
4.50 μl 0.1 M glycine was added to neutralize for 10 min;
6. Permeabilization: 50 ul of 0.2% TritonX-100 was added to each well and permeabilized at room temperature for 10 min;
8.5 mg/mL DAPI stock solution was diluted at 1:5000 (final concentration 1 μg/ml) and the cells were stained at room temperature for 20 min.
10. The plate was scanned and analyzed on In cell analyser.

Test [2] addresses CDK4/D3 (Homo sapiens (Human), UniProt P11802). In words: CDKs inhibition assay (ADP-Glo Kinase Assay), CDK4.
Method: (2) Preparation of Test Compound:
(§1) a. Test compounds at a certain concentration were taken respectively, and diluted with kinase reaction buffer I to compound solutions with a final concentration of 50 μM;
(§2) 4. Preparation of reaction substrate and ATP mixed solution:
a. Preparation of ATP solution:
(§3) 200 μl of 0.1 mM ATP solution: 2 μl of 10 mM ATP was added into 198 μl kinase reaction buffer I;
(§4) 300 μl of 50 μl M ATP solution: 150 μl kinase reaction buffer I was added into 150 μl of above-mentioned 0.1 mM ATP solution;
(§5) b. Preparation of 300 μl reaction substrate solution:
(§6) 150 μl of 1 μg/μl reaction substrate stock solution was added into 150 μl kinase reaction buffer I and uniformly mixed;
(§7) c. Above-mentioned a/b solutions were mixed to obtain mixed solutions respectively.
(§8) 2 μl compound solution at each concentration was added into a 384-well plate respectively, and centrifuged for 3 min;
(§9) 4 μl kinase solution was added into each well, centrifuged at 5000 rpm for 10 min at 18° C., and shaked well for 10 min on a shaker;
(§10) 4 μl substrate and ATP mixed solution were added into each well, centrifuged at 5000 rpm for 10 min at 18° C., and shaked well for 90 min on a shaker at 37° C.;
(§11) The 384 well plate was removed and allow to achieve room temperature;
(§12) 10 μl ADP-Glo reagent was added into each well, centrifuged at 5000 rpm for 10 min at 18° C., and shaked well for 40 min on a shaker at 25° C. to terminate the reaction;
(§13) 20 μl kinase assay reagent was added into each well, centrifuged at 5000 rpm for 10 min at 18° C., and shaked well for 30 min on a shaker at 25° C.;
(§14) Fluorescence values were read by M1000pro microplate reader.
(§15) The inhibition rate of each compound at each concentration point was calculated according to the following equation, and IC50 value was calculated by curve fitting using GraphPad Prism 5 software.
Test [3] has as its target CDK6/D3 (Homo sapiens (Human), UniProt Q00534). In words: CDKs inhibition assay (ADP-Glo Kinase Assay), CDK6.
Method: (2) Preparation of Test Compound:
as §1, §2
a. Preparation of ATP solution:
as §3, §4, §5, §6, §7, §8, §9, §10, §11, §12, §13, §14, §15
The target of test [4] is CDK1/A2 (Homo sapiens (Human), UniProt P06493). In words: CDKs inhibition assay (ADP-Glo Kinase Assay), CDK1. Conditions: read-out: IC50 (nM) CDK1/A2. On the technique in general: In ADP-Glo the light output rises with the ADP produced.
Method: (2) Preparation of Test Compound:
as §1, §2
a. Preparation of ATP solution:
as §3, §4, §5, §6, §7, §8, §9, §10, §11, §12, §13, §14, §15
Where [5] appears, read: MDA-MB-231, 72 h, read-out: IC50 for inhibition of proliferation of human breast cancer cell line MDB-MA-231.
Setting [6] is: MDA-MB-231, read-out: IC50 for inhibition of proliferation of human breast cancer cell line MDB-MA-231, 72 h incubation.

pIC50: −log10 of the molar value. Where two headings read alike, the source gives them in different places.

On to `Fc1cnc(Nc2ccc(N3CCNCC3)cn2)nc1-c1cc(F)c2nc3n(c2c1)CCCC3` [Example 13, 5-Fluoro-4-(6-fluoro-1,2,3,4-tetrahydrobenzo[4,5]imidazo[1,2-a]pyridin-8-yl)-N-(5-(piperazin-1-yl)pyridin-2-yl)pyrimidin-2-amine], for which the pIC50 in test [1] (setting [5]) is 5.93; in test [2], 7.74; in test [3], 7.20.
For `O=C(CO)N1CCc2nc(Nc3ncc(F)c(-c4cc(F)c5nc6n(c5c4)CCCC6)n3)ccc2C1` [Example 15, 1-(2-((5-Fluoro-4-(6-fluoro-1,2,3,4-tetrahydrobenzo[4,5]imidazo[1,2-a]pyridin-8-yl)pyrimidin-2-yl)amino)-7,8-dihydro-1,6-naphthyridin-6(5H)-yl)-2-hydroxyethan-1-one], in that order: 5.91, 7.55 and 7.16.
`CC1(C)CCc2nc3c(F)cc(-c4nc(Nc5ccc6c(n5)CCN(C(=O)CO)C6)ncc4F)cc3n21` [Example 21, 1-(2-((5-Fluoro-4-(5-fluoro-1,1-dimethyl-2,3-dihydro-1H-benzo[d]pyrrolo[1,2-a]imidazol-7-yl)pyrimidin-2-yl)amino)-7,8-dihydro-1,6-naphthyridin-6(5H)-yl)-2-hydroxyethan-1-one]: the pIC50 in test [3] was 7.75.
For the molecule `CC1(C)CCc2nc3c(F)cc(-c4ccnc(Nc5ccc(N6CCNCC6)cn5)n4)cc3n21` [Example 23, 4-(5-Fluoro-1,1-dimethyl-2,3-dihydro-1H-benzo[d]pyrrolo[1,2-a]imidazol-7-yl)-N-(5-(piperazin-1-yl)pyridin-2-yl)pyrimidin-2-amine], the pIC50 in test [1] (setting [6]) was 6.27; in test [3], 7.05.
On to `CC1(C)CCc2nc3c(F)cc(-c4nc(Nc5ccc(C6CCNCC6)cn5)ncc4F)cc3n21` [Example 26], for which the pIC50 in test [1] (setting [6]) is 6.67.
Take `Cc1nc(Nc2ncc(F)c(-c3cc(F)c4nc5n(c4c3)C(C)(C)CC5)n2)ccc1N1CCNCC1` [Example 31]: the pIC50 is 6.89 in test [1] (setting [6]), 8.70 in test [2] and 7.26 in test [3].
For `CCN1CCN(C(=O)c2ccc(Nc3ncc(F)c(-c4cc(F)c5nc6n(c5c4)C(C)(C)CC6)n3)nc2)CC1` [Example 32, (4-Ethylpiperazin-1-yl)(6-((5-fluoro-4-(5-fluoro-1,1-dimethyl-2,3-dihydro-1H-benzo[d]pyrrolo[1,2-a]imidazol-7-yl)pyrimidin-2-yl)amino)pyridin-3-yl)methyl ketone], in that order: 6.24, 7.31 and 7.89.
For the molecule `CCN1CCC(Oc2ccc(Nc3ncc(F)c(-c4cc(F)c5nc6n(c5c4)C(C)(C)CC6)n3)nc2)CC1` [Example 33, N-(5-((1-Ethylpiperidine-4-yl)oxy)pyridin-2-yl)-5-fluoro-4-(5-fluoro-1,1-dimethyl-2,3-dihydro-1H-benzo[d]pyrrolo[1,2-a]imidazol-7-yl)pyrimidin-2-amine], the pIC50 in test [1] (setting [6]) was 7.70; in test [2] it was 8.49; in test [3], 8.12.
As for `CC1(C)CCc2nc3c(F)cc(-c4nc(Nc5ccc(OC6CCNCC6)cn5)ncc4F)cc3n21` [Example 34, 5-Fluoro-4-(5-fluoro-1,1-dimethyl-2,3-dihydro-1H-benzo[d]pyrrolo[1,2-a]imidazol-7-yl)-N-(5-(piperidine-4-yloxy)pyridin-2-yl)pyrimidin-2-amine], the pIC50 in test [1] (setting [6]) is 7.46; in test [2], 8.41; in test [3], 8.42.
In the case of `CCN1CCC(c2ccc(Nc3ncc(F)c(-c4cc(F)c5nc6n(c5c4)C(C)(C)CC6)n3)nc2)CC1` [Example 45, N-(5-(1-Ethylpiperidine-4-yl)pyridin-2-yl)-5-fluoro-4-(5-fluoro-1,1-dimethyl-2,3-dihydro-1H-benzo[d]pyrrolo[1,2-a]imidazol-7-yl)pyrimidin-2-amine], the pIC50 in test [1] (setting [5]) is 7.52; in test [2], 8.15; in test [3], 7.66.
With `C[C@H]1CN(Cc2ccc(Nc3ncc(F)c(-c4cc(F)c5nc6n(c5c4)C(C)(C)CC6)n3)nc2)CCN1C` [Example 47, (S)—N-(5-((3,4-Dimethylpiperazin-1-yl)methyl)pyridin-2-yl)-5-fluoro-4-(5-fluoro-1,1-dimethyl-2,3-dihydro-1H-benzo[d]pyrrolo[1,2-a]imidazol-7-yl)pyrimidin-2-amine], the pIC50 in test [2] is 8.62; in test [3], 8.52. Moreover, in test [2] (in words), the “selectivity for CDK4/6 (over CDK1) compared with the control compound LY2835219” value is on record as “better selectivity for CDK4/6 than the control compound”. Besides, the “Ratio IC50 (CDK4)/IC50 (CDK1)” value in test [2] (smaller value = better selectivity for CDK4) is reported as 0.003. Further, the “Ratio IC50 (CDK6)/IC50 (CDK1)” value in test [3] (smaller value = better selectivity for CDK6) came out at 0.004. In addition, in test [4], the IC50 is 745 nM.
`CC1Cc2nc3c(F)cc(-c4nc(Nc5ccc(N6CCNCC6)cn5)ncc4F)cc3n2C1` (stereo not drawn) [Example 50, 5-Fluoro-4-(5-fluoro-2-methyl-2,3-dihydro-1H-benzo[d]pyrrolo[1,2-a]imidazol-7-yl)-N-(5-(piperazin-1-yl)pyridin-2-yl)pyrimidin-2-amine]: the pIC50 in test [1] (setting [6]) is 5.44; in test [2], 7.75; in test [3], 6.43.
Taken in the same sequence, the figures for `CCC1Cc2nc3c(F)cc(-c4nc(Nc5ccc(N6CCNCC6)cn5)ncc4F)cc3n2C1` (stereo not drawn) [Example 52, 4-(2-Ethyl-5-fluoro-2,3-dihydro-1H-benzo[d]pyrrolo[1,2-a]imidazol-7-yl)-5-fluoro-N-(5-(piperazin-1-yl)pyridin-2-yl)pyrimidin-2-amine] were 5.78, 7.22 and 6.84.
Taken in the same sequence, the figures for `CCC1CCc2nc3c(F)cc(-c4nc(Nc5ccc(N6CCNCC6)cn5)ncc4F)cc3n21` (stereo not drawn) [Example 54, 4-(1-Ethyl-5-fluoro-2,3-dihydro-1H-benzo[d]pyrrolo[1,2-a]imidazol-7-yl)-5-fluoro-N-(5-(piperazin-1-yl)pyridin-2-yl)pyrimidin-2-amine] were 6.60, 7.72 and 8.02.
As to `CC1(C)Cc2nc3c(F)cc(-c4nc(Nc5ccc(N6CCNCC6)cn5)ncc4F)cc3n2C1` [Example 55, 5-Fluoro-4-(5-fluoro-2,2-dimethyl-2,3-dihydro-1H-benzo[d]pyrrolo[1,2-a]imidazol-7-yl)-N-(5-(piperazin-1-yl)pyridin-2-yl)pyrimidin-2-amine], in test [4], the IC50 came out at 6240 nM.
Regarding `CC1CCc2nc3c(F)cc(-c4nc(Nc5ccc6c(n5)CCN(C(=O)CO)C6)ncc4F)cc3n21` (stereo not drawn) [Example 58, 1-(2-((5-Fluoro-4-(5-fluoro-1-methyl-2,3-dihydro-1H-benzo[d]pyrrolo[1,2-a]imidazol-7-yl)pyrimidin-2-yl)amino)-7,8-dihydro-1,6-naphthyridin-6(5H)-yl)-2-hydroxyethan-1-one], the pIC50 in test [1] (setting [6]) is 6.34; in test [2], 7.55; in test [3] it was 7.33.
Regarding `CC1CCc2nc3c(F)cc(-c4nc(Nc5ccc(C6CCNCC6)cn5)ncc4F)cc3n21` (stereo not drawn) [Example 61], the pIC50 in test [1] (setting [6]) is 5.81; in test [2] it was 8.41; in test [3], 7.10.
Taken in the same sequence, the figures for `Cc1nc(Nc2ncc(F)c(-c3cc(F)c4nc5n(c4c3)C(C)CC5)n2)ccc1CC1CCNCC1` (stereo not drawn) [Example 62, 5-Fluoro-4-(5-fluoro-1-methyl-2,3-dihydro-1H-benzo[d]pyrrolo[1,2-a]imidazol-7-yl)-N-(6-methyl-5-(piperidine-4-methylene)pyridin-2-yl)pyrimidin-2-amine] were 5.88, 8.77 and 7.47.
For the molecule `CC1CCc2nc3c(F)cc(-c4nc(Nc5ccc(C6CCN(C)CC6)cn5)ncc4F)cc3n21` (stereo not drawn) [Example 66], the results for the pIC50 in test [2] and in test [3] were 8.37 and 7.67, respectively.
For `CCC1CCc2nc3c(F)cc(-c4nc(Nc5ccc(C6CCN(C)CC6)cn5)ncc4F)cc3n21` (stereo not drawn) [Example 68, 4-(1-Ethyl-5-fluoro-2,3-dihydro-1H-benzo[d]pyrrolo[1,2-a]imidazolel-7-yl)-5-fluoro-N-(5-(1-methylpiperidine-4-yl)pyridin-2-yl)pyrimidin-2-amine], in that order: 8.05 and 8.22.
For `CCN1CCC(c2ccc(Nc3ncc(F)c(-c4cc(F)c5nc6n(c5c4)C(C)CC6)n3)nc2)CC1` (stereo not drawn) [Example 69, N-(5-(1-Ethylpiperidine-4-yl)pyridin-2-yl)-5-fluoro-4-(5-fluoro-1-methyl-2,3-dihydro-1H-benzo[d]pyrrolo[1,2-a]imidazol-7-yl)pyrimidin-2-amine], in that order: 7.40 and 7.61.
For `CN(C)C1CCN(c2ccc(Nc3ncc(F)c(-c4cc(F)c5nc6n(c5c4)C(C)(C)CC6)n3)nc2)CC1` [Example 71, N-(5-(4-(Dimethylamino)piperidine-1-yl)pyridin-2-yl)-5-fluoro-4-(5-fluoro-1,1-dimethyl-2,3-dihydro-1H-benzo[d]pyrrolo[1,2-a]imidazol-7-yl)pyrimidin-2-amine], the pIC50 in test [1] (setting [6]) is 7.34; in test [2] it was 9.00; in test [3], 7.85.
Consider `CC1CCc2nc3c(F)cc(-c4ccnc(Nc5ccc(N6CCNCC6)cn5)n4)cc3n21` (stereo not drawn) [Example 72, 4-(5-Fluoro-1-methyl-2,3-dihydro-1H-benzo[d]pyrrolo[1,2-a]imidazol-7-yl)-N-(5-(piperazin-1-yl)pyridin-2-yl)pyrimidin-2-amine], for which the IC50 in test [4] was 693 nM.
